24 compounds from patent US11046680B1, “Heteroaryl-substituted triazoles as APJ receptor agonists” (priority 2016, dated 2021) can be followed below.

Chain of human APJ receptor (P35414 whole entry): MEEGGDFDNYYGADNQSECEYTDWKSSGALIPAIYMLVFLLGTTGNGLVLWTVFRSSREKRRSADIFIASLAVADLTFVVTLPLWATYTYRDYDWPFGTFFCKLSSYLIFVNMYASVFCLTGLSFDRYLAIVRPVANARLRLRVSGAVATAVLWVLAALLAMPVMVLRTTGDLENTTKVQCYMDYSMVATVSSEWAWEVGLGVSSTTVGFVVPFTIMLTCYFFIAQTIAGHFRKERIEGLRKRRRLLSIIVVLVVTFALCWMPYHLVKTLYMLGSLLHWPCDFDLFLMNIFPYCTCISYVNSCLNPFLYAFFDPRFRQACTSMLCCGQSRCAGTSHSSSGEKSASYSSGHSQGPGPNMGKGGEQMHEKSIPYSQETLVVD

This test concerns the target human APJ receptor (Homo sapiens (Human), UniProt P35414). The test is described as follows: biochemical. Type of test: biochemical. As to conditions: [35S]GTPγS binding, CHO membranes expressing human APJ receptor; read-out: Activity hAPJ SPA EC50 IP. Summed up: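 Membranes of a stable CHO line carrying human APJ (pFLAG-CMV-3) were used in a GTPγS binding format; buffer GDP, MgCl2 and NaCl were optimized, and plates were read after 90 min at RT.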
In general terms: Binding of GTPγS marks nucleotide exchange on a G protein.
On to `CO[C@H](c1ncc(Cl)cn1)[C@H](C)S(=O)(=O)Nc1nnc(-c2ccn(C)n2)n1-c1c(F)cccc1F` [Example 229.0, (1R,2S)-1-(5-chloro-2-pyrimidinyl)-N-(4-(2,6-difluorophenyl)-5-(1-methyl-1H-pyrazol-3-yl)-4H-1,2,4-triazol-3-yl)-1-methoxy-2-propanesulfonamide], for which the EC50 amounted to 3.1 nM. `COc1cccc(OC)c1-n1c(NS(=O)(=O)[C@@H](C)[C@H](OC)c2ncc(Cl)cn2)nnc1-c1noc(C)c1C` [Example 515.0, (1R,2S)-1-(5-chloropyrimidin-2-yl)-N-(4-(2,6-dimethoxyphenyl)-5-(4,5-dimethylisoxazol-3-yl)-4H-1,2,4-triazol-3-yl)-1-methoxypropane-2-sulfonamide]: the EC50 was found to be 0.93 nM. For `COc1ccc(N(C)C)cc1-n1c(NS(=O)(=O)CCc2ccc(Cl)cc2)nnc1-c1cccs1` [Example 252.0, 2-(4-chlorophenyl)-N-(4-(5-(dimethylamino)-2-methoxyphenyl)-5-(2-thiophenyl)-4H-1,2,4-triazol-3-yl)ethanesulfonamide], the EC50 was 11 nM. In the case of `COc1cccc(OC)c1-n1c(NS(=O)(=O)[C@H](C)Cc2ncc(F)cn2)nnc1-c1ccncn1` (single isomer, unassigned) [Example 38.0, (R)-N-(4-(2,6-dimethoxyphenyl)-5-(pyrimidin-4-yl)-4H-1,2,4-triazol-3-yl)-1-(5-fluoropyrimidin-2-yl)propane-2-sulfonamide or (R)-N-(4-(2,6-dimethoxyphenyl)-5-(pyrimidin-4-yl)-4H-1,2,4-triazol-3-yl)-1-(5-fluoropyrimidin-2-yl)propane-2-sulfonamide], the EC50 was 84 nM.

With `COc1cccc(OC)c1-n1c(NS(=O)(=O)CCc2ccc(Cl)cc2)nnc1-c1nccs1` [Example 136.0, 2-(4-chlorophenyl)-N-(4-(2,6-dimethoxyphenyl)-5-(thiazol-2-yl)-4H-1,2,4-triazol-3-yl)ethanesulfonamide], the half-maximal effective concentration (EC50) stood at 35 nM. As to `COc1cncc(-c2nnc(NS(=O)(=O)[C@@H](C)Cc3ncc(F)cn3)n2-c2c(OC)cccc2OC)n1` (single isomer, unassigned) [Example 188.0, (2S)-N-(4-(2,6-dimethoxyphenyl)-5-(6-methoxy-2-pyrazinyl)-4H-1,2,4-triazol-3-yl)-1-(5-fluoro-2-pyrimidinyl)-2-propanesulfonamide or (2R)-N-(4-(2,6-dimethoxyphenyl)-5-(6-methoxy-2-pyrazinyl)-4H-1,2,4-triazol-3-yl)-1-(5-fluoro-2-pyrimidinyl)-2-propanesulfonamide], the concentration giving a half-maximal response (EC50) was 15 nM. Turning to `COc1cccc(OC)c1-n1c(NS(=O)(=O)CCc2ccc(F)cc2C#N)nnc1-c1nc(C)cs1` [Example 147.0, 2-(2-Cyano-4-fluorophenyl)-N-(4-(2,6-dimethoxyphenyl)-5-(4-methylthiazol-2-yl)-4H-1,2,4-triazol-3-yl)ethanesulfonamide], the EC50 came to 1.3 nM. Under `COc1cccc(OC)c1-n1c(NS(=O)(=O)[C@H](C)Cc2ncc(F)cn2)nnc1-c1nc(C2CC2)cs1` (single isomer, unassigned) [Example 160.0, (R)-N-(5-(4-cyclopropylthiazol-2-yl)-4-(2,6-dimethoxyphenyl)-4H-1,2,4-triazol-3-yl)-1-(5-fluoropyrimidin-2-yl)propane-2-sulfonamide or (S)-N-(5-(4-cyclopropylthiazol-2-yl)-4-(2,6-dimethoxyphenyl)-4H-1,2,4-triazol-3-yl)-1-(5-fluoropyrimidin-2-yl)propane-2-sulfonamide] stands 2 nM; under `COc1ccccc1-n1c(NS(=O)(=O)[C@@H](C)[C@H](C)c2ncc(F)cn2)nnc1-c1ccn(C)n1` [Example 269.0, (2S,3R)-3-(5-fluoro-2-pyrimidinyl)-N-(4-(2-methoxyphenyl)-5-(1-methyl-1H-pyrazol-3-yl)-4H-1,2,4-triazol-3-yl)-2-butanesulfonamide], 8.7 nM; under `COc1cccc(OC)c1-n1c(NS(=O)(=O)[C@@H](C)[C@H](OC)c2cnc(C)cn2)nnc1-c1cc(C)[nH]n1` [Example 348.0, (1R,2S)-N-(4-(2,6-dimethoxyphenyl)-5-(5-methyl-1H-pyrazol-3-yl)-4H-1,2,4-triazol-3-yl)-1-methoxy-1-(5-methyl-2-pyrazinyl)-2-propanesulfonamide], 4.3 nM. Under `COc1ncnc(OC)c1-n1c(NS(=O)(=O)[C@@H](C)[C@H](C)c2ncc(Cl)cn2)nnc1-c1cnn2ccccc12` [Example 440.0, (2S,3R)-3-(5-chloropyrimidin-2-yl)-N-(4-(4,6-dimethoxypyrimidin-5-yl)-5-(pyrazolo[1,5-a]pyridin-3-yl)-4H-1,2,4-triazol-3-yl)butane-2-sulfonamide] stands 0.96 nM. Then `CCc1csc(-c2nnc(NS(=O)(=O)CCc3ncc(F)cn3)n2-c2c(OC)cccc2OC)n1` [Example 97.0, N-(4-(2,6-dimethoxyphenyl)-5-(4-ethylthiazol-2-yl)-4H-1,2,4-triazol-3-yl)-2-(5-fluoropyrimidin-2-yl)ethanesulfonamide], with 7 nM; and `COCC1(n2c(NS(=O)(=O)[C@@H](C)[C@H](OC)c3ncc(Cl)cn3)nnc2-c2noc3ccccc23)CC1` [Example 505.0, (1R,2S)-N-(5-(1,2-benzoxazol-3-yl)-4-(1-(methoxymethyl)cyclopropyl)-4H-1,2,4-triazol-3-yl)-1-(5-chloro-2-pyrimidinyl)-1-methoxy-2-propanesulfonamide], with 8.5 nM. On to `COc1cccc(OC)c1-n1c(NS(=O)(=O)CCc2ccc(F)cc2Br)nnc1-c1nccs1` [Example 140.0, 2-(2-bromo-4-fluorophenyl)-N-(4-(2,6-dimethoxyphenyl)-5-(thiazol-2-yl)-4H-1,2,4-triazol-3-yl)ethanesulfonamide], for which the EC50 amounted to 24.5 nM. Regarding `COc1cccc(OC)c1-n1c(NS(=O)(=O)C[C@H](OC)c2ccc(Cl)cc2S(C)(=O)=O)nnc1-c1ccn(C)n1` (mixture of isomers) [Example 305.0, (2R)-2-(4-Chloro-2-(methylsulfonyl)phenyl)-N-(4-(2,6-dimethoxyphenyl)-5-(1-methyl-1H-pyrazol-3-yl)-4H-1,2,4-triazol-3-yl)-2-methoxyethanesulfonamide and (2S)-2-(4-chloro-2-(methylsulfonyl)phenyl)-N-(4-(2,6-dimethoxyphenyl)-5-(1-methyl-1H-pyrazol-3-yl)-4H-1,2,4-triazol-3-yl)-2-methoxyethanesulfonamide], the EC50 is 0.44 nM. Under `COc1ccccc1-n1c(NS(=O)(=O)Cc2ccc(Cl)cc2)nnc1-c1cccs1` [Example 385.0, 1-(4-Chlorophenyl)-N-(4-(2-methoxyphenyl)-5-(thiophen-2-yl)-4H-1,2,4-triazol-3-yl)methanesulfonamide] stands > 12500 nM. Then `COc1cnc([C@@H](OC)[C@H](C)S(=O)(=O)Nc2nnc(-c3ccn(C)n3)n2-c2c(OC)ncnc2OC)cn1` [Example 460.0, (1R,2S)-N-(4-(4,6-dimethoxy-5-pyrimidinyl)-5-(1-methyl-1H-pyrazol-3-yl)-4H-1,2,4-triazol-3-yl)-1-methoxy-1-(5-methoxy-2-pyrazinyl)-2-propanesulfonamide], with 2.6 nM; and `COc1cccc(OC)c1-n1c(NS(=O)(=O)[C@@H](C)[C@H](OC)c2ncc(C)cn2)nnc1-c1ccc(Cl)s1` [Example 334.0, (1R,2S)-N-(5-(5-chloro-2-thiophenyl)-4-(2,6-dimethoxyphenyl)-4H-1,2,4-triazol-3-yl)-1-methoxy-1-(5-methyl-2-pyrimidinyl)-2-propanesulfonamide], with 0.52 nM. Consider “(R)-N-(4-(2,6-dimethoxyphenyl)-5-(1-methyl-1H-pyrazol-4-yl)-4H-1,2,4-triazol-3-yl)-1-(5-fluoropyrimidin-2-yl)propane-2-sulfonamide and (R)-N-(4-(2,6-dimethoxyphenyl)-5-(1-methyl-1H-pyrazol-4-yl)-4H-1,2,4-triazol-3-yl)-1-(5-fluoropyrimidin-2-yl)propane-2-sulfonamide [Example 40.0]”, for which the EC50 was found to be 5.2 nM.

For `COc1cccc(OC)c1-n1c(NS(=O)(=O)[C@@H](C)[C@H](C)c2ncc(Cl)cn2)nnc1-c1cc(C)on1` [Example 498.0, (2S,3R)-3-(5-chloropyrimidin-2-yl)-N-(4-(2,6-dimethoxyphenyl)-5-(5-methylisoxazol-3-yl)-4H-1,2,4-triazol-3-yl)butane-2-sulfonamide], the EC50 was 0.44 nM. For `COc1cnc([C@@H](C)[C@H](C)S(=O)(=O)Nc2nnc(-c3ccn(C)n3)n2-c2c(OC)cccc2OC)nc1` [Example 295.0, (2S,3R)-N-(4-(2,6-dimethoxyphenyl)-5-(1-methyl-1H-pyrazol-3-yl)-4H-1,2,4-triazol-3-yl)-3-(5-methoxy-2-pyrimidinyl)-2-butanesulfonamide], the EC50 is 0.4 nM. Then `CO[C@H](c1ncc(Cl)cn1)[C@H](C)S(=O)(=O)Nc1nnc(-c2nn(C)c3c2CCCC3)n1C(C)C` [Example 512.0, (1R,2S)-1-(5-chloropyrimidin-2-yl)-N-(4-isopropyl-5-(1-methyl-4,5,6,7-tetrahydro-1H-indazol-3-yl)-4H-1,2,4-triazol-3-yl)-1-methoxypropane-2-sulfonamide], with 130 nM; and `COc1cccc(OC)c1-n1c(NS(=O)(=O)[C@@H](C)[C@H](OC)c2ncc(C)cn2)nnc1-c1n[nH]c2ccc(Cl)cc12` [Example 412.0, (1R,2S)-N-(5-(5-chloro-1H-indazol-3-yl)-4-(2,6-dimethoxyphenyl)-4H-1,2,4-triazol-3-yl)-1-methoxy-1-(5-methylpyrimidin-2-yl)propane-2-sulfonamide], with 140 nM; and `COc1cccc(OC)c1-n1c(NS(=O)(=O)[C@@H](C)[C@H](C)c2ncc(C)cn2)nnc1-c1ccn(C)n1` [Example 201.0, (2S,3R)-N-(4-(2,6-dimethoxyphenyl)-5-(1-methyl-1H-pyrazol-3-yl)-4H-1,2,4-triazol-3-yl)-3-(5-methyl-2-pyrimidinyl)-2-butanesulfonamide], with 0.93 nM.

Broadly, the EC50 is the concentration that produces a half-maximal response.
